What was measured:
Format in all cases: in vivo
[1] = test system: Japanese millet (Echinochloa crus-galli, ECHCF); assay: Greenhouse herbicidal effectiveness test, percent inhibition, Japanese millet; details: for % Inhibition ECHCF: Example 90, evaluation 11 days after application
Description: (§1) The herbicidal effectiveness data set forth herein report “inhibition” as a percentage following a standard procedure in the art which reflects a visual assessment of plant mortality and growth reduction by comparison with untreated plants, made by technicians specially trained to make and record such observations. In all cases. a single technician makes all assessments of percent inhibition within any one experiment or trial. Such measurements are relied upon and regularly reported by Monsanto Company in the course of its herbicide business.
(§2) The following procedure was used for testing compositions of the Examples to determine herbicidal effectiveness, except where otherwise indicated.
(§3) Seeds of the plant species indicated were planted in 85 mm square pots in a soil mix which was previously steam sterilized and prefertilized with a 14-14-14 NPK slow release fertilizer at a rate of 3.6 kg/m3. The pots were placed in a greenhouse with sub-irrigation. About one week after emergence, seedlings were thinned as needed, including removal of any unhealthy or abnormal plants, to create a uniform series of test pots.
(§4) The plants were maintained for the duration of the test in the greenhouse where they received a minimum of 14 hours of light per day. If natural light was insufficient to achieve the daily requirement, artificial light with an intensity of approximately 475 microeinsteins was used to make up the difference. Exposure temperatures were not precisely controlled but averaged about 27° C. during the day and about 18° C. during the night. Plants were sub-irrigated throughout the test to ensure adequate soil moisture levels.
(§5) A set of pots was left untreated as a reference against which effects of the treatments could later be evaluated.
(§6) Application of glyphosate compositions was made by spraying with a track sprayer fitted with a 9501E nozzle calibrated to deliver a spray volume of 93 liters per hectare (1/ha) at a pressure of 166 kilopascals (kPa). After treatment, pots were returned to the greenhouse until ready for evaluation.
(§7) Treatments were made using dilute aqueous compositions. These could be prepared as spray compositions directly from their ingredients, or by dilution with water of preformulated concentrate compositions.
(§8) For evaluation of herbicidal effectiveness, all plants in the test were examined by a single practiced technician, who recorded percent inhibition, a visual measurement of the effectiveness of each treatment by comparison with untreated plants.
(§9) Velvetleaf (Abutilon theophrasti, ABUTH) and Japanese millet (Echinochloa crus-galli, ECHCF) plants were grown and treated by the standard procedures given above. […]

[2] = test system: Velvetleaf (Abutilon theophrasti, ABUTH); assay: Greenhouse herbicidal effectiveness test, percent inhibition, velvetleaf
Description: as §1, §2, §3, §4, §5, §6, §7, §8, §9

[3] = test system: Prickly sida (Sida spinosa, SIDSP); assay: Greenhouse herbicidal effectiveness test, percent inhibition, prickly sida
Description: as §1, §2, §3, §4, §5, §6, §7
For evaluation of herbicidal effectiveness, all plants in the test were examined by a single practiced technician, who recorded percent inhibition, a visual measurement of the effectiveness of each treatment by comparison with untreated plants. […]
Prickly sida (Sida spinosa, SIDSP) plants were grown and treated by the standard procedures given above. Applications of spray compositions were made 22 days after planting SIDSP, and evaluation of herbicidal inhibition was done 19 days after application.
Prickly sida (Sida spinosa, SIDSP) plants were grown and treated by the standard procedures given above. Applications of spray compositions were made 23 days after planting SIDSP, and […].
Prickly sida (Sida spinosa, SIDSP) plants were grown and treated by the standard procedures given above. Applications of spray compositions were made 22 days after planting SIDSP, and evaluation of herbicidal inhibition was done 19 days after application. […]

[4] = test system: plant species indicated in the Example (ABUTH, ECHCF, SIDSP ...); assay: Greenhouse herbicidal effectiveness test, stated overall or averaged over the plant species of the Example; details: statement in the discussion of the Example at the place; rates and comparators as stated there
Description: as §1
The following procedure was used for testing compositions of the Examples to determine herbicidal effectiveness, except where otherwise indicated. […]
as §5
as §6, with “evaluation. […]” for “evaluation.”
as §8

[5] = Example 90, glufosinate rate 50 g a.i./ha, evaluation 11 days after application
[6] = Echinochloa crus-galli, 240 h, read-out: % Inhibition ECHCF
[7] = Sida spinosa, 240 h, read-out: % Inhibition SIDSP

Compound: CP(=O)(O)CCC(N)C(=O)O (stereo not drawn) [Glufosinate (technical)]
- % Inhibition ECHCF ([1]; glufosinate rate 50 g a.i./ha): 0%
- % Inhibition ECHCF ([1]; glufosinate rate 100 g a.i./ha): 0%
- % Inhibition ABUTH [2, 5]: 0%
- % Inhibition SIDSP [3, 5]: 5%
- % Inhibition SIDSP ([3]; Example 90, glufosinate rate 100 g a.i./ha, evaluation 11 days after application): 10%

Compound: Steareth-20
- herbicidal effectiveness, overall for the species of the Example, in words [4]: more effective additives for Formulation B than steareth-10

Compound: O=C(O)c1cc(Oc2ccc(C(F)(F)F)cc2Cl)ccc1[N+](=O)[O-] [Acifluorfen]
- inhibition at 25 g/ha [1, 6]: 2%
- inhibition at 50 g/ha [1, 6]: 7%
- inhibition at 100 g/ha [1, 6]: 18%
- inhibition at 200 g/ha [1, 6]: 35%
- inhibition at 25 g/ha ([2]; Abutilon theophrasti, 240 h, Example 83, acifluorfen rate 25 g a.i./ha, evaluated 10 days after application): 20%
- inhibition at 50 g/ha ([2]; Abutilon theophrasti, 240 h, Example 83, acifluorfen rate 50 g a.i./ha, evaluated 10 days after application): 32%
- inhibition at 100 g/ha ([2]; Abutilon theophrasti, 240 h, Example 83, acifluorfen rate 100 g a.i./ha, evaluated 10 days after application): 52%
- inhibition at 200 g/ha ([2]; Abutilon theophrasti, 240 h, Example 83, acifluorfen rate 200 g a.i./ha, evaluated 10 days after application): 62%
- inhibition at 25 g/ha [3, 7]: 15%
- inhibition at 50 g/ha [3, 7]: 17%
- inhibition at 100 g/ha [3, 7]: 35%
- inhibition at 200 g/ha [3, 7]: 40%

Compound: COc1c(Cl)ccc(Cl)c1C(=O)O [Dicamba (technical)]
- % Inhibition SIDSP ([3]; dicamba rate 25 g a.i./ha, evaluation 17 days after application): 30%
- % Inhibition SIDSP ([3]; dicamba rate 50 g a.i./ha, evaluation 17 days after application): 40%
- % Inhibition SIDSP ([3]; dicamba rate 100 g a.i./ha, evaluation 17 days after application): 50%
- % Inhibition SIDSP ([3]; dicamba rate 200 g a.i./ha, evaluation 17 days after application): 58%

Compound: COC(=O)NS(=O)(=O)c1ccc(N)cc1 [Asulam (technical)]
- % Inhibition ABUTH ([2]; asulam rate 400 g a.i./ha, evaluation 14 days after application): 17%

Compound: O=C(O)CNCP(=O)(O)O [glyphosate, N-phosphonomethylglycine, reference compound]
- average inhibition of ABUTH ([2]; Example 27, average over four glyphosate rates, no excipient, 19 days after application): 32%

Compound: C[N+](C)(C)CCCNS(=O)(=O)C(F)(F)C(F)(F)C(F)(F)C(F)(F)C(F)(F)C(F)(F)C(F)(F)C(F)(F)F.[I-] [Fluorad FC-135, 3-(((heptadecafluorooctyl)sulfonyl)amino)-N,N,N-trimethyl-1-propaminium iodide]
- concentration of Fluorad FC-135 which had to be added in tank-mix to Formulation B to bring its herbicidal performance up to that of Formulation C ([1]; Example 21, ECHCF, after application): approximately 0.25%
- optimum adjuvant concentration ([1]; Example 25, ECHCF, tank-mix adjuvant for glyphosate as Formulation B, 21 days after application): 0.2%
- concentration of Fluorad FC-135 which had to be added in tank-mix to Formulation B to bring its herbicidal performance up to that of Formulation C ([2]; Example 21, ABUTH, 20 days after application): ~0.02%
- optimum adjuvant concentration ([2]; Example 25, ABUTH, tank-mix adjuvant for glyphosate as Formulation B, 21 days after application): 0.2%
- concentration of Fluorad FC-135 which had to be added in tank-mix to Formulation B to bring its herbicidal performance up to that of Formulation C ([3]; Example 21, SIDSP, 20 days after application): ~0.1%

Compound: ceteareth-30
- herbicidal effectiveness, overall for the species of the Example, in words [4]: more effective additives for Formulation B than steareth-10
